From patent publication US8580977B2 (priority 2010, dated 2013)

What was measured:
PP2A = settings: literature; cited from earlier work
PP1 = settings: literature; cited from earlier work
Du145, MCF7, and HCT-115 = test: cytotoxicity against selected human cancer cell lines; format: cell-based; settings: Du145, MCF7, HCT-115
Description: (§1) IR spectra were measured on a Bruker EQUINOX 55/S FT-IR/NIR spectrophotometer (Ettlingen, DE). Optical rotations were determined on a Perkin-Elmer 241 instrument at the sodium D line (589 nm). High-resolution mass spectrometry (HRMS) analyses were acquired on an IonSpec HiRes MALDI FT mass spectrometer (Lake Forest, Calif.) for […] or on an Agilent 1100 series LC/MSD Trap SL for HRESIMS (Santa Clara, Calif.). NMR data were recorded on a Varian Unity Inova 400 or 500 MHz NMR spectrometer (Varian, Inc., Palo Alto, Calif.). ^1H and ^13C NMR chemical shifts were referenced to residual solvent signals: δH 7.26 ppm and […] for CDCl3. ^1H-^1H COSY, HMQC, HMBC, HETLOC, gHSQMBC, and gDQCOSY were performed using either standard Varian pulse sequences or literature pulse sequences (Uhrin et al., 1998; Williamson et al., 2000). High-performance liquid chromatography (HPLC) analysis was carried out on a Varian HPLC system equipped with ProStar 210 pumps and a photodiode detector. Mobile phases used were buffer A (H2O) and buffer B (CH3CN). Analytical and semipreparative HPLC columns used were Alltech Alltima C18 columns, 250×4.6 mm, 5 μm and 250×10 mm, 5 respectively. Cytotoxity assays and PP inhibition assays for TTN and related analogues were performed as previously described for compound TTM and related congeners (Ju et al., 2009). Medium components and all other chemical solvents and reagents were purchased from Fisher Scientific (Fairlawn, N.J.). Silica gel 60 RP-18 (230-400 mesh, EMD Chemical Inc., Gibbstown, N.J.) was used for standard benchtop column chromatography. Amberlite XAD-16 resin was purchased from Sigma.
Compounds 3-7 were subjected to PP inhibition and cytotoxicity assays with 1 as a control (Ju et al., 2009). Assays focused specifically on the inhibition of PP-1 and PP-2A (Table 4), while cytotoxicity assays exploited the use of selected human cancer cell lines Du145, MCF7, and HCT-115 (Table 5). […]

PP-1 [1] = system: T1, PP-1; test: PP inhibition assay, PP-1; format: biochemical; settings: for PP-1 inhibition relative to TTN: less efficient / worse than TTN; for IC50: read-out: in vitro inhibition (IC50) against PP-1
T1 construct: other: less efficient / worse than TTN
Description: as §1
(§2) Compounds 3-7 were subjected to PP inhibition and cytotoxicity assays with 1 as a control (Ju et al., 2009). Assays focused specifically on the inhibition of PP-1 and PP-2A (Table 4), while cytotoxicity assays exploited the use of selected human cancer cell lines Du145, MCF7, and HCT-115 (Table 5).

PP-2A = test: PP inhibition assay, PP-2A; format: biochemical; settings: for IC50: read-out: in vitro inhibition (IC50) against PP-2A
Description: as §1, §2

[2] = in vitro cytotoxicity assay, HCT-115; format: cell-based; settings: HCT-115 cells; HCT-115 human cancer cell line
Description: as §1, with “Medium components and all other chemical solvents and reagents were purchased from Fisher Scientific (Fairlawn, N.J.). Silica gel 60 RP-18 (230-400 mesh, EMD Chemical Inc., Gibbstown, N.J.) was used for standard benchtop column chromatography. Amberlite XAD-16 resin was purchased from Sigma.” left out

[3] = in vitro cytotoxicity assay, Du145; format: cell-based; settings: Du145 cells; Du145 human cancer cell line
Description: as §1, with “Medium components and all other chemical solvents and reagents were purchased from Fisher Scientific (Fairlawn, N.J.). Silica gel 60 RP-18 (230-400 mesh, EMD Chemical Inc., Gibbstown, N.J.) was used for standard benchtop column chromatography. Amberlite XAD-16 resin was purchased from Sigma.” left out

[4] = in vitro cytotoxicity assay, MCF7; format: cell-based; settings: MCF7 cells; MCF7 human cancer cell line
Description: as §1, with “Medium components and all other chemical solvents and reagents were purchased from Fisher Scientific (Fairlawn, N.J.). Silica gel 60 RP-18 (230-400 mesh, EMD Chemical Inc., Gibbstown, N.J.) was used for standard benchtop column chromatography. Amberlite XAD-16 resin was purchased from Sigma.” left out

PP-1 [5] = test: PP inhibition assay, PP-1; format: biochemical; settings: PP-1 over PP-2A
Description: as §1, §2

activated T cells = settings: literature (Shim et al., 2002); cited from earlier work

Row | Compound | IC50 (PP2A) [µM] | IC50 (PP1) [µM] | preference for PP1 inhibition relative to PP2A (PP1) | cytotoxicity (in words) (Du145, MCF7, and HCT-115) | PP-1 inhibition relative to TTN (PP-1 [1]) | IC50 (PP-1 [1]) [µM] | PP-2A inhibition relative to TTN (PP-2A) | IC50 (PP-2A) [µM] | IC50 [2] [µM] | IC50 [3] [µM] | IC50 [4] [µM] | PP-1 selectivity (PP-1 [5]) | T cell proliferation inhibited at concentrations lower than those needed for maximal inhibition by cyclosporine A (activated T cells) [fold]
1 | CO[C@H]([C@H](O)CC(=O)[C@@H](C)[C@@H](O)CC[C@@H](C)[C@@H]1O[C@]2(CC[C@@H](C)[C@H](CC[C@H](C)C(C)=O)O2)CC[C@@H]1C)[C@H](OC(=O)C[C@@H](O)C1=C(C)C(=O)OC1=O)C(C)C [TTM, tautomycin] | 0.022 to 0.032 | 0.022 to 0.032 | slight preference for PP1 | – | – | – | – | – | – | – | – | – | –
2 | CCC(/C=C/C(=O)O)=C\CC[C@H](C)C[C@@H](C)CC[C@H](O)[C@H](C)C(=O)C[C@@H](O)[C@H](C)[C@@H](C)OC(=O)C[C@@H](O)C1=C(C)C(=O)OC1=O [TTN D-1 (4)] | – | – | – | inactive | approximately one order of magnitude | 0.13 ± 0.02 | about the same potency as TTN | 0.52 ± 0.05 | – | – | – | – | –
3 | CCC(/C=C/C(=O)O)=C\C(O)C[C@H](C)C[C@@H](C)CC[C@H](O)[C@H](C)C(=O)C[C@@H](O)[C@H](C)[C@@H](C)OC(=O)C[C@@H](O)C1=C(C)C(=O)OC1=O (stereo partly drawn) [TTN D-2 (5)] | – | – | – | inactive | approximately three orders of magnitude worse | 9.8 ± 0.1 | about two orders of magnitude worse | 44 ± 0.1 | – | – | – | – | –
4 | CCC(C=CC(=O)O)=CC(O)CC(C)CC(C)CCC(O)C(C)C(=O)CC(O)C(C)C(C)OC(=O)CC(O)C1=C(C)C(=O)OC1=O [TTN D-3 (6)] | – | – | – | – | approximately one order of magnitude | 0.21 ± 0.03 | about the same potency as TTN | 0.8 ± 0.06 | 16 ± 3 | 14 ± 3 | 11 ± 3 | – | –
5 | CCC(C=CC(=O)O)=CC(=O)CC(C)CC(C)CCC(O)C(C)C(=O)CC(O)C(C)C(C)OC(=O)CC(O)C1=C(C)C(=O)OC1=O [TTN D-4 (7)] | – | – | – | – | approximately one order of magnitude | – | about the same potency as TTN | 0.92 ± 0.04 | 18 ± 3 | 13 ± 4 | 17 ± 3 | – | –
6 | CC/C(=C\CC[C@H](C)C[C@@H](C)CC[C@H](O)[C@H](C)C(=O)C[C@@H](O)[C@H](C)[C@@H](C)OC(=O)C[C@@H](O)C1=C(C)C(=O)OC1=O)C(O)CC(=O)O (stereo partly shown) [TTN F-1 (3)] | – | – | – | inactive | approximately one order of magnitude | 0.17 ± 0.01 | about the same potency as TTN | 0.64 ± 0.08 | – | – | – | – | –
7 | Tautomycetin [TTN (1), reference compound] | 0.062 | 0.0016 | – | – | – | 0.015 ± 8e-07 | – | 0.4 ± 0.04 | – | – | – | about 27 fold | 100
